Test in all cases: activity (1 - area under the dose-response curve within the screened range) (fraction); higher = more sensitive
What all share (settings): treatment time: 72 h

One assay has as its system HCM-SANG-0266-C20 (colorectal cancer organoid). A digest of the protocol: (§1)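 Patient-derived organoids from colorectal and oesophageal cancers were kept in 5% or 80% ECM (BME-2), then plated onto an ECM layer in 384-well plates and exposed for 3 days to a 7-point half-log dilution series, in technical triplicate and biological duplicate. A non-linear mixed effects model was used to fit dose-response curves, and any fit with an RMSE above 0.3 was rejected. Activity was taken as the complement of the area under the fitted curve across the screened dose range.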

The test system of another assay is HCM-SANG-0270-C20 (colorectal cancer organoid). A digest of the protocol:
as §1

Another assay concerns HCM-SANG-0291-C15 (oesophageal cancer organoid). A digest of the protocol:
as §1

The test system of another assay is HCM-SANG-0532-C20 (colorectal cancer organoid). A digest of the protocol:
as §1

The mark [1] stands for this setting: ECM percentage in culture prior to screening 5 %.
Where [2] appears, read: ECM percentage in culture prior to screening 80 %.

Each structure is given as a SMILES string. ± gives the standard deviation of the averaged measurements.

In the case of `CC[C@@H]1C(=O)N(C)c2cnc(Nc3ccc(C(=O)NC4CCN(C)CC4)cc3OC)nc2N1C1CCCC1` [BI-2536], the activity amounted to 0.439 ± 0.041 in the assay with HCM-SANG-0266-C20 (setting [1]); 0.436 ± 0.036 with HCM-SANG-0266-C20 (setting [2]); 0.305 ± 0.17 in the assay with HCM-SANG-0270-C20 (setting [1]); 0.311 ± 0.11 in the assay with HCM-SANG-0270-C20 (setting [2]); 0.429 ± 0.043 in the assay on HCM-SANG-0291-C15 (setting [1]); 0.464 ± 0.06 with HCM-SANG-0291-C15 (setting [2]). The activity stood at 0.292 ± 0.087 in the assay on HCM-SANG-0532-C20 (setting [1]) and 0.335 ± 0.046 in the assay with HCM-SANG-0532-C20 (setting [2]).

In the case of `CNC(=O)c1ccccc1Sc1ccc2c(/C=C/c3ccccn3)n[nH]c2c1` [Axitinib], the activity in the assay on HCM-SANG-0266-C20 (setting [1]) is 0.147 ± 0.033; with HCM-SANG-0266-C20 (setting [2]) it was 0.143 ± 0.047; in the assay with HCM-SANG-0270-C20 (setting [1]), 0.125 ± 0.03; with HCM-SANG-0270-C20 (setting [2]), 0.109 ± 0.037; in the assay on HCM-SANG-0291-C15 (setting [1]), 0.0739 ± 0.021; with HCM-SANG-0291-C15 (setting [2]), 0.056 ± 0.023. For the same compound, the figures for the activity in the assay on HCM-SANG-0532-C20 (setting [1]) and in the assay with HCM-SANG-0532-C20 (setting [2]) were 0.112 ± 0.021 and 0.135 ± 0.035, respectively.

Take `Cc1nc(Nc2ncc(C(=O)Nc3c(C)cccc3Cl)s2)cc(N2CCN(CCO)CC2)n1` [Dasatinib]: the activity in the assay on HCM-SANG-0266-C20 (setting [1]) stood at 0.129 ± 0.069; with HCM-SANG-0266-C20 (setting [2]), 0.0743 ± 0.054; in the assay on HCM-SANG-0270-C20 (setting [1]), 0.0518 ± 0.018; in the assay on HCM-SANG-0270-C20 (setting [2]), 0.045 ± 0.018; in the assay on HCM-SANG-0291-C15 (setting [1]), 0.0426 ± 0.021; in the assay on HCM-SANG-0291-C15 (setting [2]) it was 0.0463 ± 0.017. The results for the activity in the assay with HCM-SANG-0532-C20 (setting [1]) and in the assay on HCM-SANG-0532-C20 (setting [2]) were 0.0937 ± 0.048 and 0.0525 ± 0.021, respectively.

On to `Nc1nc2[nH]cc(CCc3ccc(C(=O)N[C@@H](CCC(=O)O)C(=O)O)cc3)c2c(=O)[nH]1` [Pemetrexed], for which the activity is 0.0697 ± 0.056 in the assay with HCM-SANG-0266-C20 (setting [1]); 0.0926 ± 0.047 with HCM-SANG-0266-C20 (setting [2]); 0.117 ± 0.049 in the assay on HCM-SANG-0270-C20 (setting [1]); 0.164 ± 0.1 in the assay on HCM-SANG-0270-C20 (setting [2]); 0.0737 ± 0.036 with HCM-SANG-0291-C15 (setting [1]); 0.0434 ± 0.025 in the assay with HCM-SANG-0291-C15 (setting [2]). For the same compound, the activity in the assay on HCM-SANG-0532-C20 (setting [1]) came to 0.0604 ± 0.023; with HCM-SANG-0532-C20 (setting [2]), 0.0425 ± 0.012.

`CC[C@@]1(O)C(=O)OCc2c1cc1n(c2=O)Cc2cc3ccccc3nc2-1` [Camptothecin]: the activity with HCM-SANG-0266-C20 (setting [1]) was determined as 0.169 ± 0.031; in the assay with HCM-SANG-0266-C20 (setting [2]), 0.147 ± 0.071; with HCM-SANG-0270-C20 (setting [1]), 0.133 ± 0.028; with HCM-SANG-0270-C20 (setting [2]), 0.0946 ± 0.022; in the assay on HCM-SANG-0291-C15 (setting [1]) it was 0.262 ± 0.021; in the assay with HCM-SANG-0291-C15 (setting [2]), 0.258 ± 0.022. The activity in the assay on HCM-SANG-0532-C20 (setting [1]) turned out to be 0.106 ± 0.034; with HCM-SANG-0532-C20 (setting [2]), 0.156 ± 0.023.

As for `N#CC[C@H](C1CCCC1)n1cc(-c2ncnc3[nH]ccc23)cn1` [Ruxolitinib], the activity in the assay with HCM-SANG-0266-C20 (setting [1]) was 0.0203 ± 0.00098; in the assay with HCM-SANG-0266-C20 (setting [2]) it was 0.03 ± 0.01; in the assay with HCM-SANG-0270-C20 (setting [1]), 0.0225 ± 0.0051; in the assay on HCM-SANG-0270-C20 (setting [2]), 0.0229 ± 0.007; in the assay with HCM-SANG-0291-C15 (setting [1]), 0.0206 ± 0.0044; in the assay on HCM-SANG-0291-C15 (setting [2]), 0.0196 ± 0.0023. The figures for the activity in the assay with HCM-SANG-0532-C20 (setting [1]) and with HCM-SANG-0532-C20 (setting [2]) were 0.0295 ± 0.011 and 0.0236 ± 0.0026, respectively.

For the compound `CS(=O)(=O)N1CCN(Cc2cc3nc(-c4cccc5[nH]ncc45)nc(N4CCOCC4)c3s2)CC1` [Pictilisib], the activity is 0.198 ± 0.059 in the assay on HCM-SANG-0266-C20 (setting [1]); 0.152 ± 0.068 in the assay with HCM-SANG-0266-C20 (setting [2]); 0.0973 ± 0.037 in the assay with HCM-SANG-0270-C20 (setting [1]); 0.0554 ± 0.033 in the assay with HCM-SANG-0270-C20 (setting [2]); 0.0595 ± 0.032 in the assay with HCM-SANG-0291-C15 (setting [1]); 0.0514 ± 0.019 with HCM-SANG-0291-C15 (setting [2]). Moreover, the activity was 0.12 ± 0.07 in the assay on HCM-SANG-0532-C20 (setting [1]) and 0.155 ± 0.039 with HCM-SANG-0532-C20 (setting [2]).

As to `O=C(O)C(=O)O.[NH-][C@@H]1CCCC[C@H]1[NH-].[Pt+2]` [Oxaliplatin], the activity with HCM-SANG-0266-C20 (setting [1]) amounted to 0.0673 ± 0.036; in the assay on HCM-SANG-0266-C20 (setting [2]), 0.0486 ± 0.022; in the assay on HCM-SANG-0270-C20 (setting [1]) it was 0.0594 ± 0.018; in the assay with HCM-SANG-0270-C20 (setting [2]), 0.0493 ± 0.038; in the assay with HCM-SANG-0291-C15 (setting [1]) it was 0.0391 ± 0.022; in the assay with HCM-SANG-0291-C15 (setting [2]), 0.0459 ± 0.025. The activity with HCM-SANG-0532-C20 (setting [1]) stood at 0.0448 ± 0.016; in the assay on HCM-SANG-0532-C20 (setting [2]), 0.0692 ± 0.031.
